Test results reported in paper PMC11489133, “Obicetrapib exhibits favorable physiochemical and pharmacokinetic properties compared to previous cholesteryl ester transfer protein inhibitors: An integrated summary of results from non‐human primate studies and clinical trials” (Pharmacology Research & Perspectives, 2024).
Where “and” joins values, the source holds several entries; their conditions need not be identical. Equal values may be shown once. Read-outs that look alike come from different tables or passages of the source.

Legend:
Format in all cases: in vivo, humans
[1] = Phase I food effect trial on obicetrapib bioavailability (TA‐8995‐09); details: for Cmax / AUC / t max: both sexes, human, plasma, oral, 10 mg; for t max: read-out: t max, median (minimum, maximum)
Method: (§1) The PK parameters and the effect of food on the bioavailability of obicetrapib in humans have been examined in both Phase I[9] (TA‐8995‐09 CSR, NewAmsterdam Pharma) and Phase II trials.[10], [11], [12], [13] The trials were performed in accordance with the Declaration of Helsinki, Good Clinical Practice Guidelines, and applicable regulatory requirements. Approval was obtained from the relevant ethical review boards for each site. All volunteers provided written informed consent prior to participation. PK parameters were determined using WinNonlin software, version 4.1 or higher (Pharsight/Certara Corporation, USA). Concentrations of obicetrapib were summarized for each treatment group using descriptive statistics.
This was an open‐label, randomized, two‐sequence, two‐period, two‐treatment crossover study conducted to evaluate the effect of food on the bioavailability of 10 mg obicetrapib. Thirty healthy adult males and females were randomized to treatment and data were available for 23 participants. In Treatment Period I, participants received a single 10 mg dose of obicetrapib after an overnight fast. In Treatment Period II, participants received a single 10 mg dose of obicetrapib at 30 min following the start of a standardized high‐fat, high‐calorie breakfast that was preceded by an overnight fast. Blood samples were collected at pre‐dose and at intervals over 336 h after dosing in each treatment period. The interval between doses was 49 days. The half‐life of obicetrapib was expected to be less than 6 days; therefore, it was anticipated that 49 days would be well beyond five half‐lives and an adequate washout period (TA‐8995‐09 CSR, NewAmsterdam Pharma).

[2] = absorption, metabolism and excretion study of a single 10 mg dose of 14C-obicetrapib (NCT02408055, TA‐8995‐07)
Method: Figure 2 illustrates the obicetrapib (TA‐8995) M1 detected above the LLOQ (>1% radioactivity) in human plasma expressed as the percent radioactivity profiled. A study (NCT02408055) was conducted in healthy male participants (n = 6) to assess the absorption, metabolism, and excretion of a single dose of 10 mg of ^14C‐obicetrapib (TA‐8995‐07 CSR, NewAmsterdam Pharma). One of the objectives of the study was to determine the chemical structure of ^14C‐obicetrapib M1 that represent ≥10% of total radioactivity in plasma. The participants received 10 mL ^14C‐obicetrapib oral suspension, containing 10 mg and 100 μCi of ^14C‐obicetrapib in the fasted state. Clinical samples for analysis were selected based upon the levels of radioactivity present as determined by liquid scintillation counting and were stored at below −50°C (nominally −80°C) when not in use. Plasma samples from the participants were sequentially extracted with acetonitrile at five time points. The resulting extracts were concentrated by evaporation and reconstituted in mobile phase HPLC prior to analysis by radio‐HPLC. All samples were analyzed by liquid scintillation counting to evaluate the recovery of radioactivity. The profiles of the radiolabeled components in each sample of plasma were determined by HPLC analysis with off‐line radio‐detection. Selected samples from each matrix were then further analyzed by high‐resolution mass spectrometry to investigate the identity of M1. In plasma, the predominant metabolite component was unchanged obicetrapib (~79% of total drug‐related exposure), and the most abundant plasma M1 were M1 and P9 of which each accounted for ~4% of total exposure (Figure 2). No significant differences in the metabolite profiles were observed across the samples obtained from the six participants (TA‐8995‐07 CSR, NewAmsterdam Pharma).

[3] = TULIP Phase II trial, plasma concentrations of obicetrapib; details: for % Change in Plasma Level: Week 20 vs EOT, mean (SD); for concentration at 12 weeks / concentration at 20 weeks: both sexes, human, plasma, oral, read-out: Mean (SD) Plasma Level; for concentration at 12 weeks: Week 12 (EOT)
Method: as §1
TULIP (NCT01970215) was a placebo‐controlled, double‐blind, randomized parallel‐group trial conducted to evaluate the effects of varying doses of obicetrapib as monotherapy and in combination with moderate‐intensity statin therapy on LDL‐C and HDL‐C levels.[10]
Additionally, the plasma concentrations of obicetrapib were evaluated during and after the treatment period. Eligible participants had mild dyslipidemia defined as LDL‐C levels between 96–174 mg/dL, HDL‐C levels between 31 and 70 mg/dL, and triglyceride levels <400 mg/dL after a washout for those on lipid‐modifying therapies. Three hundred and sixty‐four participants (mean age: 64.7 years; 81.6% male; 98.1% White; mean body mass index [BMI]: 26.0 kg/m^2) were enrolled at 17 clinical research sites in the Netherlands and Denmark and randomized in a […] ratio to one of nine treatment groups: (1) placebo; (2) 1 mg obicetrapib; (3) 2.5 mg obicetrapib; (4) 5 mg obicetrapib; (5) 10 mg obicetrapib; (6) 10 mg atorvastatin; (7) 10 mg obicetrapib plus 20 mg atorvastatin; (8) 10 mg rosuvastatin; or (9) 10 mg obicetrapib plus 10 mg rosuvastatin. The participants were instructed to take their assigned treatment orally with food once daily for the 12‐week treatment period. After randomization, participants returned to the clinical research site for PK assessments at Weeks 8 and 12 (end of treatment). Participants also completed follow‐up visits two and eight weeks after the end of treatment (Weeks 14 and 20) for final safety and PK assessments. Of the 364 participants randomized, 337 (92.6%) completed the trial and were included in the primary analysis. The PK population (n = 242) included all randomized participants who received at least one dose of obicetrapib and had at least one valid plasma drug concentration data assessment; 227 (93.8%) of the participants in the PK population were included in the 8‐week post‐end of treatment PK analysis (TA‐8995‐03 CSR, NewAmsterdam Pharma).

[4] = Obicetrapib 10 mg + atorvastatin 20 mg
[5] = Obicetrapib 10 mg + rosuvastatin 10 mg

CCOC(=O)N1c2ccc(C(F)(F)F)cc2C(N(Cc2cc(C(F)(F)F)cc(C(F)(F)F)c2)c2ncc(OCCCC(=O)O)cn2)CC1CC (stereo not drawn) [Obicetrapib]
increase of peak and overall systemic exposure (AUC, C max) under fed compared to fasted conditions ([1]; 10 mg dose, high‐fat meal): ~ 1.6 fold and 1.6 fold
least‐squares geometric mean of fed versus fasted ratio, AUC0‐t ([1]; 10 mg single dose): 154.9%
least‐squares geometric mean of fed versus fasted ratio, AUC0‐∞ ([1]; 10 mg single dose): 155.4%
least‐squares geometric mean of fed versus fasted ratio, C max ([1]; 10 mg single dose): 158.5%
AUC(0‐t), LSGM Ratio (90% CI) (Fed vs. Fasted) ([1]; 10 mg single dose, n = 23): 155 (130, 184)
AUC(0‐∞), LSGM Ratio (90% CI) (Fed vs. Fasted) ([1]; 10 mg single dose, n = 23): 155 (129, 187)
C max, LSGM Ratio (90% CI) (Fed vs. Fasted) ([1]; 10 mg single dose, n = 23): 159 (126, 199)
Cmax ([1]; 10 mg single dose, Fasted, n = 23): 140 ng/mL
AUC ([1]; 10 mg single dose, Fasted, n = 23, read-out: AUC(0‐t), LS GM (converted)): 12400 ng·h/mL
AUC ([1]; 10 mg single dose, Fasted, n = 23, read-out: AUC(0‐∞), LS GM (converted)): 16600 ng·h/mL
Cmax ([1]; 10 mg single dose, Fed (high‐fat, high‐calorie breakfast), n = 23): 222 ng/mL
AUC ([1]; 10 mg single dose, Fed, n = 23, read-out: AUC(0‐t), LS GM (converted)): 19200 ng·h/mL
AUC ([1]; 10 mg single dose, Fed, n = 23, read-out: AUC(0‐∞), LS GM (converted)): 25800 ng·h/mL
t max ([1]; 10 mg single dose, fasted): 5 h
t max ([1]; 10 mg single dose, fed): 5.5 h
percent radioactivity profiled in human plasma ([2]; n = 6 individuals, 24 h AUC pools, Figure 2): up to 92.8%
share of total drug‐related exposure in plasma ([2]; single 10 mg 14C‐obicetrapib, fasted, healthy males n = 6): ~ 79%
% Change in Plasma Level ([3]; Obicetrapib 5 mg): −97.8 (0.8) %
Mean (SD) Plasma Level ([3]; Obicetrapib 10 mg + atorvastatin 20 mg, Week 20, eight weeks after the end of treatment): 10.8 (5.9) ng/mL
% Change in Plasma Level [3, 4]: −97.4 (1.0) %
% Change in Plasma Level [3, 5]: −97.3 (1.3) %
% Change in Plasma Level ([3]; Obicetrapib 10 mg): −97.7 (0.7) %
concentration at 12 weeks ([3]; 5 mg, Obicetrapib 5 mg once daily): 258 ng/mL
concentration at 20 weeks ([3]; 5 mg, Obicetrapib 5 mg, Week 20, eight weeks after the end of treatment): 5.9 ng/mL
concentration at 12 weeks ([3]; 10 mg, Obicetrapib 10 mg once daily): 408 ng/mL
concentration at 20 weeks ([3]; 10 mg, Obicetrapib 10 mg, Week 20, eight weeks after the end of treatment): 9.8 ng/mL
concentration at 12 weeks [3, 4]: 404 ng/mL
concentration at 12 weeks [3, 5]: 402 ng/mL
concentration at 20 weeks ([3]; Obicetrapib 10 mg + rosuvastatin 10 mg, Week 20, eight weeks after the end of treatment): 11.3 ng/mL
decrease of plasma levels ([3]; eight weeks after the last dose (Week 20), all treatment groups): approximately 97%
